The record followed here is patent publication US10800792B2, “Inhibitors of Bruton's tyrosine kinase and method of their use” (JANSSEN PHARMACEUTICA NV, priority 2015, dated 2020).

This assay addresses unphosphorylated-BTK kinase domain (UP-BTK), GST-tagged human BTK (389-659aa) (Homo sapiens (Human), UniProt Q06187). The assay is described as follows: BTK kinase Lanthascreen binding assay. The settings on record: unphosphorylated-BTK kinase domain, 50 nM Tracer 236, 60 minutes, pIC50 = negative log of the IC50 in molar; for IC50: read-out: BTK_I_binding pIC50 (converted). Put shortly: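 Lanthascreen competition binding; test compound vs fluorescent tracer on unphosphorylated BTK. Output: pIC50 (−log IC50, M).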
A general note: In TR-FRET formats the signal depends on donor and acceptor labels being close together.

unphosphorylated-BTK kinase domain (UP-BTK), GST-tagged human BTK (389-659aa), sequence (Q06187 389-659): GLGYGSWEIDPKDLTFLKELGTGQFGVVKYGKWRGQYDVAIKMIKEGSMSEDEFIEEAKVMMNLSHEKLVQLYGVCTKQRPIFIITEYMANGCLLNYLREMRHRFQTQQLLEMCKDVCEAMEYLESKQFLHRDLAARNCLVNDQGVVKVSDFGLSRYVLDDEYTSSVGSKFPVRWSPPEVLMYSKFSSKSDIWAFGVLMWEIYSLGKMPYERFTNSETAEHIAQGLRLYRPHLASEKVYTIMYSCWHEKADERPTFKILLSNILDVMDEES

With `C=CS(=O)(=O)N1CCC[C@@H](NC(=O)c2sc3nccc4c3c2NC(=O)N4c2ccc(Oc3ccccc3)cc2C)C1` [Example 372, (R)-5-(2-Methyl-4-phenoxyphenyl)-4-oxo-N-(1-(vinylsulfonyl)piperidin-3-yl)-4,5-dihydro-3H-1-thia-3,5,8-triazaacenaphthylene-2-carboxamide], the “BTK_I_binding pIC50” value was found to be 7.6.
The same measure, in the same setting: the figure for `CN(C)C/C=C/C(=O)N1CCC[C@@H](NC(=O)c2sc3nccc4c3c2NC(=O)N4c2ccc(Oc3ccccc3)cc2)C1` [Example 373, (R,E)-N-(1-(4-(Dimethylamino)but-2-enoyl)piperidin-3-yl)-4-oxo-5-(4-phenoxyphenyl)-4,5-dihydro-3H-1-thia-3,5,8-triazaacenaphthylene-2-carboxamide] is 7.3; for `Cc1cc(Oc2ccccc2)ccc1N1C(=O)Nc2c(C(=O)N[C@@H]3CCCN(C(=O)/C=C/CS(C)(=O)=O)C3)sc3nccc1c23` [Example 374, (R,E)-5-(2-Methyl-4-phenoxyphenyl)-N-(1-(4-(methylsulfonyl)but-2-enoyl)piperidin-3-yl)-4-oxo-4,5-dihydro-3H-1-thia-3,5,8-triazaacenaphthylene-2-carboxamide] it is 7.0.
Take `[2H]c1c([2H])c([2H])c(Oc2ccc(N3C(=O)Nc4c(C(=O)N[C@@H]5CCCN(C(=O)C=C)C5)sc5nccc3c45)c(C)c2)c([2H])c1[2H]` [Example 375, (R)—N-(1-Acryloylpiperidin-3-yl)-5-(2-methyl-4-(2,3,4,5,6-pentadeuteriophenoxy)phenyl)-4-oxo-4,5-dihydro-3H-1-thia-3,5,8-triazaacenaphthylene-2-carboxamide]: the IC50 is 12.6 nM.
Consider `[2H]c1c([2H])c([2H])c(Oc2ccc(N3C(=O)Nc4c(C(=O)N[C@@H]5CCN(C(=O)C=C)C5)sc5nccc3c45)c(C)c2)c([2H])c1[2H]` [Example 376, (R)—N-(1-Acryloylpyrrolidin-3-yl)-5-(2-methyl-4-(2,3,4,5,6-pentadeuteriophenoxy)phenyl)-4-oxo-4,5-dihydro-3H-1-thia-3,5,8-triazaacenaphthylene-2-carboxamide], for which the IC50 was 15.8 nM.
In the case of `CNC/C=C/C(=O)N1CC[C@@H](NC(=O)c2sc3nccc4c3c2NC(=O)N4c2ccc(Oc3ccccc3)cc2C)C1` [Example 377, (R,E)-5-(2-Methyl-4-phenoxyphenyl)-N-(1-(4-(methylamino)but-2-enoyl)pyrrolidin-3-yl)-4-oxo-4,5-dihydro-3H-1-thia-3,5,8-triazaacenaphthylene-2-carboxamide], the “BTK_I_binding pIC50” value is 7.5.
With `[2H]c1c([2H])c([2H])c(Oc2ccc(N3C(=O)Nc4c(C(=O)N[C@@H]5CCCN(C(=O)/C(C#N)=C/C6CC6)C5)sc5nccc3c45)c(C)c2)c([2H])c1[2H]` [Example 378, (R,E)-N-(1-(2-Cyano-3-cyclopropylacryloyl)piperidin-3-yl)-5-(2-methyl-4-(2,3,4,5,6-pentadeuteriophenoxy)phenyl)-4-oxo-4,5-dihydro-3H-1-thia-3,5,8-triazaacenaphthylene-2-carboxamide], the IC50 was 31.6 nM.
The same measure, in the same setting: with `[2H]c1c([2H])c([2H])c(Oc2ccc(N3C(=O)Nc4c(C(=O)N[C@@H]5CCCN(C#N)C5)sc5nccc3c45)c(C)c2)c([2H])c1[2H]` [Example 379, (R)—N-(1-Cyanopiperidin-3-yl)-5-(2-methyl-4-(2,3,4,5,6-pentadeuteriophenoxy)phenyl)-4-oxo-4,5-dihydro-3H-1-thia-3,5,8-triazaacenaphthylene-2-carboxamide] the figure was 31.6 nM; with `[2H]c1c([2H])c([2H])c(Oc2ccc(N3C(=O)Nc4c(C(=O)N[C@@H]5CCCN(C([2H])([2H])[2H])C5)sc5nccc3c45)c(C)c2)c([2H])c1[2H]` [Example 380, (R)-5-(2-Methyl-4-(2,3,4,5,6-pentadeuteriophenoxy)phenyl)-N-(1-(trideuteriomethyl)piperidin-3-yl)-4-oxo-4,5-dihydro-3H-1-thia-3,5,8-triazaacenaphthylene-2-carboxamide], 158 nM.
Regarding `[2H]c1c([2H])c([2H])c(Oc2ccc(N3C(=O)Nc4c(C(=O)N[C@@H]5CCCN(C)C5)sc5nccc3c45)c(C)c2)c([2H])c1[2H]` [Example 381, (R)-5-(2-Methyl-4-(2,3,4,5,6-pentadeuteriophenoxy)phenyl)-N-(1-methylpiperidin-3-yl)-4-oxo-4,5-dihydro-3H-1-thia-3,5,8-triazaacenaphthylene-2-carboxamide], the IC50 is 79.4 nM.
As to `Cc1cc(Oc2ccccc2)ccc1N1C(=O)Nc2c(C(=O)N[C@@H]3CCN(C(=O)/C=C/CN)C3)sc3nccc1c23` [Example 382, (R,E)-N-(1-(4-Aminobut-2-enoyl)pyrrolidin-3-yl)-5-(2-methyl-4-phenoxyphenyl)-4-oxo-4,5-dihydro-3H-1-thia-3,5,8-triazaacenaphthylene-2-carboxamide], the “BTK_I_binding pIC50” value was found to be 7.3.
In the case of `Cc1cc(Oc2ccccc2)ccc1N1C(=O)Nc2c(C(=O)N[C@@H]3CCCN(C(=O)/C=C/CNS(C)(=O)=O)C3)sc3nccc1c23` [Example 383, (R,E)-5-(2-Methyl-4-phenoxyphenyl)-N-(1-(4-(methylsulfonamido)but-2-enoyl)piperidin-3-yl)-4-oxo-4,5-dihydro-3H-1-thia-3,5,8-triazaacenaphthylene-2-carboxamide], the “BTK_I_binding pIC50” value turned out to be 7.2.
Turning to `Cc1cc(Oc2ccccc2)ccc1N1C(=O)Nc2c(C(=O)N[C@@H]3CCN(C(=O)CN(C)C)C3)sc3nccc1c23` [Example 384, (R)—N-(1-(2-(Dimethylamino)acetyl)pyrrolidin-3-yl)-5-(2-methyl-4-phenoxyphenyl)-4-oxo-4,5-dihydro-3H-1-thia-3,5,8-triazaacenaphthylene-2-carboxamide], the “BTK_I_binding pIC50” value was found to be 7.1.
Consider `C/C=C(\C#N)C(=O)N1CCC[C@@H](NC(=O)c2sc3nccc4c3c2NC(=O)N4c2ccc(Oc3ccccc3)cc2C)C1` [Example 385, (R,E)-N-(1-(2-Cyanobut-2-enoyl)piperidin-3-yl)-5-(2-methyl-4-phenoxyphenyl)-4-oxo-4,5-dihydro-3H-1-thia-3,5,8-triazaacenaphthylene-2-carboxamide], for which the “BTK_I_binding pIC50” value was found to be 7.9.
With `Cc1cc(Oc2ccccc2)ccc1N1C(=O)Nc2c(C(=O)N[C@@H]3CCCN(C(=O)[C@@H]4CCN4)C3)sc3nccc1c23` [Example 386, N—((R)-1-((S)-Azetidine-2-carbonyl)piperidin-3-yl)-5-(2-methyl-4-phenoxyphenyl)-4-oxo-4,5-dihydro-3H-1-thia-3,5,8-triazaacenaphthylene-2-carboxamide], the “BTK_I_binding pIC50” value is reported as 6.9.
As for `CNC/C=C(\F)C(=O)N1CCC[C@@H](NC(=O)c2sc3nccc4c3c2NC(=O)N4c2ccc(Oc3ccccc3)cc2C)C1` [Example 388, (R,Z)—N-(1-(2-Fluoro-4-(methylamino)but-2-enoyl)piperidin-3-yl)-5-(2-methyl-4-phenoxyphenyl)-4-oxo-4,5-dihydro-3H-1-thia-3,5,8-triazaacenaphthylene-2-carboxamide], the “BTK_I_binding pIC50” value worked out at 7.1.
Same read-out and setting: with `Cc1cc(Oc2ccccc2)ccc1N1C(=O)Nc2c(C(=O)N[C@@H]3CCCN(C(=O)CN4CCCC4)C3)sc3nccc1c23` [Example 389, (R)-5-(2-Methyl-4-phenoxyphenyl)-4-oxo-N-(1-(2-(pyrrolidin-1-yl)acetyl)piperidin-3-yl)-4,5-dihydro-3H-1-thia-3,5,8-triazaacenaphthylene-2-carboxamide] the figure was 7.0; with `C=CC(=O)N1CCC[C@@H](NCc2sc3nccc4c3c2NC(=O)N4c2ccc(Oc3ccccc3)cc2C)C1` [Example 390, (R)-2-(((1-Acryloylpiperidin-3-yl)amino)methyl)-5-(2-methyl-4-phenoxyphenyl)-3H-1-thia-3,5,8-triazaacenaphthylen-4(5H)-one], 6.9; with `CNCC(=O)N1CC[C@@H](NC(=O)c2sc3nccc4c3c2NC(=O)N4c2ccc(Oc3ccccc3)cc2C)C1` [Example 391, (R)-5-(2-Methyl-4-phenoxyphenyl)-N-(1-(2-(methylamino)acetyl)pyrrolidin-3-yl)-4-oxo-4,5-dihydro-3H-1-thia-3,5,8-triazaacenaphthylene-2-carboxamide], 7.2.
`Cc1cc(Oc2ccccc2)ccc1N1C(=O)Nc2c(C(=O)N[C@@H]3CCN(C(=O)CN)C3)sc3nccc1c23` [Example 392, (R)—N-(1-(2-Aminoacetyl)pyrrolidin-3-yl)-5-(2-methyl-4-phenoxyphenyl)-4-oxo-4,5-dihydro-3H-1-thia-3,5,8-triazaacenaphthylene-2-carboxamide]: the “BTK_I_binding pIC50” value worked out at 7.4.
On the same count and under the same terms, the figure for `Cc1cc(Oc2ccccc2)ccc1N1C(=O)Nc2c(C(=O)N[C@@H]3CCCN(C(=O)CN4CCCCC4)C3)sc3nccc1c23` [Example 393, (R)-5-(2-Methyl-4-phenoxyphenyl)-4-oxo-N-(1-(2-(piperidin-1-yl)acetyl)piperidin-3-yl)-4,5-dihydro-3H-1-thia-3,5,8-triazaacenaphthylene-2-carboxamide] is 6.8; for `Cc1cc(Oc2ccccc2)ccc1N1C(=O)Nc2c(C(=O)N[C@@H]3CCCN(C(=O)CN4CCOCC4)C3)sc3nccc1c23` [Example 394, (R)-5-(2-Methyl-4-phenoxyphenyl)-N-(1-(2-morpholinoacetyl)piperidin-3-yl)-4-oxo-4,5-dihydro-3H-1-thia-3,5,8-triazaacenaphthylene-2-carboxamide] it is 6.8.
Take `Cc1cc(Oc2ccccc2)ccc1N1C(=O)Nc2c(C(=O)N[C@@H]3CCN(C(=O)CCl)C3)sc3nccc1c23` [Example 395, (R)—N-(1-(2-Chloroacetyl)pyrrolidin-3-yl)-5-(2-methyl-4-phenoxyphenyl)-4-oxo-4,5-dihydro-3H-1-thia-3,5,8-triazaacenaphthylene-2-carboxamide]: the “BTK_I_binding pIC50” value came out at 8.0.
